# Measurements from US9539256B2 (THE BOARD OF REGENTS OF THE UNIVERSITY OF TEXAS SYSTEM, priority 2012, dated 2017).
# Tests used:
# [1] = target: T1, EPAC2 (Homo sapiens, UniProt Q8WZA2); test: Rap1 activation assay in HEK293/EPAC2 cells; type: cell-based; settings: for 007-AM induced Rap1 activation: HEK293/EPAC2 cells, pre-treatment with 10 μM compound
# T1 construct: HEK293 cells that ectopically express full-length EPAC2 proteins; expressed in transfected cells; host or cells: HEK293
# Procedure: (§1) FIGS. 9A-9B. Effects of EPAC2-specific antagonists on 007-AM-mediated cellular activation of Rap1. […] GTP-bound Rap1 (Rap1GTP) obtained by a Ral-GDSRBD-GST pull-down assay and total cellular Rap1 were detected by immunoblotting with Rap1-specific antibody. […] At test was used to determine statistical significance (*P<0.05).
# (§2) Cellular activation of Rap1 was determined by pull-down of lysates derived from human vascular smooth muscle cell and HEK293 cells stably expressing EPAC1 or EPAC2 employing Ral-GDS-RBD-GST affinity beads as described earlier (Mei and Cheng (2005) Molecular Biosystems 1: 325-331).
# [2] = target: T2, EPAC1 (Homo sapiens, UniProt O95398); test: Phosphorylation of Akt in HEK293/EPAC1 cells; type: cell-based; settings: stimulation with 007-AM
# T2 sequence (O95398 1-923): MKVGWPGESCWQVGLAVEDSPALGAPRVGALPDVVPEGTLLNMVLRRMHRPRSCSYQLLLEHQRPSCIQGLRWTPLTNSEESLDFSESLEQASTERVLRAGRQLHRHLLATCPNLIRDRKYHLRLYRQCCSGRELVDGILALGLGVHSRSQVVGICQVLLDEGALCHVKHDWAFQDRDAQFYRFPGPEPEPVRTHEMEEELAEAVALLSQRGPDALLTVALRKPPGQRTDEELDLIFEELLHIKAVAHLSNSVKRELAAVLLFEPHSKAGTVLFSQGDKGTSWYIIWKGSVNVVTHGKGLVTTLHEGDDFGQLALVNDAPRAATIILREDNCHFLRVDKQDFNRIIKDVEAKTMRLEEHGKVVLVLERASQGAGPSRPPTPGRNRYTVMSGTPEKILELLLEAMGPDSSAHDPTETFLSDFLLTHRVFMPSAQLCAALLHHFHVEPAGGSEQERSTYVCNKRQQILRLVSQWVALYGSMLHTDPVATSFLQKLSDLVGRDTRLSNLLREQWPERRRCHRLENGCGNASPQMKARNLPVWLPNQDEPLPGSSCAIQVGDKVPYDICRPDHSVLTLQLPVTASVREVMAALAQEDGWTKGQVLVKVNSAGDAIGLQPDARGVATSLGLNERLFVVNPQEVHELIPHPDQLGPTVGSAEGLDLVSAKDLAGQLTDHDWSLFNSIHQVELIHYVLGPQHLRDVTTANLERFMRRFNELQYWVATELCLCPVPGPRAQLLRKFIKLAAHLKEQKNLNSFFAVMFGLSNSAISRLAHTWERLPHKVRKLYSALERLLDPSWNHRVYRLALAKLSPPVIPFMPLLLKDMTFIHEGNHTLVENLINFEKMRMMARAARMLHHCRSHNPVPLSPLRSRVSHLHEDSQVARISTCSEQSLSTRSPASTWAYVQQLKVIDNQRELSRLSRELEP
# Procedure: (§3) FIG. 10. Effect of ESI-09 on EPAC-mediated PKB phosphorylation in HEK293/EPAC1, HEK293/EPAC2, and human vascular smooth muscle (hVSMC) cells. Serum-starved HEK293/EPAC1, HEK293/EPAC2, and hVSMC cells with or without pretreatment of […] ESI-09 were stimulated with 10 μM 007-AM. Cell lysates were subjected to Western blot analysis as described under “Experimental Procedures” using anti-phospho-Ser473-specific (PKB-P473) and anti-phospho-Thr308-specific (PKB-P308) PKB antibodies.
# (§4) Cellular proteins from cell lysates treated with various reagents were separated by SDS-PAGE and transferred to polyvinylidene difluoride membrane. The levels of Akt activation were probed by immuno-blotting analyses using anti-phosphate T308 PKB antibodies (1:1000) and anti-phosphate S473 PKB antibodies (1:1000). At least three independent experiments were performed for each Western blot.
# [3] = target: T1, EPAC2; test: Phosphorylation of Akt in HEK293/EPAC2 cells; type: cell-based; settings: stimulation with 007-AM
# Procedure: as §3, §4
# [4] = test system: AsPC-1 and PANC-1 cells; test: Cell adhesion assay on collagen I matrix; type: cell-based; settings: stimulation with 10 μM 007-AM
# Procedure: FIG. 13 ESI-09 inhibits EPAC1-mediated adhesion of PDA cells on collagen I. AsPC-1 and PANC-1 cells were stimulated with vehicle or 10 μM 007-AM after treatment with the indicated concentrations of ESI-09 for 5 minutes. Bars represent mean±s.d.
# It has been recently reported that EPAC1 is over-expressed in pancreatic adenocarcinoma (Lorenz et al. (2008) Pancreas 37: 102-103). However, the functional role of EPAC1 elevation in this neoplasm is not clear. The inventors sought to employ ESI-09 to determine the role of EPAC1 signaling in pancreatic cancer. […] In order to determine if the observed impact on cell migration is EPAC1 specific, the effect of suppressing EPAC1 expression on AsPC-1 and PANC-1 migration using RNAi was examined. […] To further determine how ESI-09 inhibits PDA cell migration and invasion, a cell adhesion assay was performed using a collagen I matrix. […] To determine the in vivo anti-metastatic effect of ESI-09, MIA PaCa-2 stably expressing luciferase were orthotopically implanted into the pancreas of athymic nude mice. The mice were randomly divided into two groups and treated with vehicle or ESI-09 (50 mg/kg per day, oral gavage), respectively. The growth and metastasis of the tumors were monitored by weekly bioluminescence imaging using the IVIS bioluminescence imaging system.
# [5] = test system: type I PKA holoenzyme; test: PKA counter screening, type I holoenzyme; type: biochemical; settings: 25 μM compound
# Procedure: (§5) Kinase activity of the type I and II PKA holoenzyme are measured spectrophotometrically in a 96-well plate with a coupled enzyme assay as described previously (Cook et al. (1982) Biochemistry 21: 5794-5799). In this assay, the formation of ADP is coupled to the oxidation of NADH by the pyruvate kinase/lactate dehydrogenase reactions so the reaction rate can be determined by following the oxidation of NADH, reflected by a decrease in absorbance at 340 nm. […] Reactions are pre-equilibrated at room temperature and initiated by adding the Kemptide substrate (final concentration 0.26 mM).
# [6] = test system: type II PKA holoenzyme; test: PKA counter screening, type II holoenzyme; type: biochemical; settings: 25 μM compound
# Procedure: as §5
# [7] = target: T2, EPAC1; test: Rap1 activation assay in HEK293/EPAC1 cells; type: cell-based
# Procedure: as §1, §2
# [8] = target: T2, EPAC1; test: Rap1-GDP exchange (GEF) activity assay, EPAC1
# [9] = target: T3, EPAC2 (Mus musculus, UniProt Q9EQZ6); test: 8-NBD-cAMP competition binding to EPAC2
# T3 sequence (Q9EQZ6 1-1011): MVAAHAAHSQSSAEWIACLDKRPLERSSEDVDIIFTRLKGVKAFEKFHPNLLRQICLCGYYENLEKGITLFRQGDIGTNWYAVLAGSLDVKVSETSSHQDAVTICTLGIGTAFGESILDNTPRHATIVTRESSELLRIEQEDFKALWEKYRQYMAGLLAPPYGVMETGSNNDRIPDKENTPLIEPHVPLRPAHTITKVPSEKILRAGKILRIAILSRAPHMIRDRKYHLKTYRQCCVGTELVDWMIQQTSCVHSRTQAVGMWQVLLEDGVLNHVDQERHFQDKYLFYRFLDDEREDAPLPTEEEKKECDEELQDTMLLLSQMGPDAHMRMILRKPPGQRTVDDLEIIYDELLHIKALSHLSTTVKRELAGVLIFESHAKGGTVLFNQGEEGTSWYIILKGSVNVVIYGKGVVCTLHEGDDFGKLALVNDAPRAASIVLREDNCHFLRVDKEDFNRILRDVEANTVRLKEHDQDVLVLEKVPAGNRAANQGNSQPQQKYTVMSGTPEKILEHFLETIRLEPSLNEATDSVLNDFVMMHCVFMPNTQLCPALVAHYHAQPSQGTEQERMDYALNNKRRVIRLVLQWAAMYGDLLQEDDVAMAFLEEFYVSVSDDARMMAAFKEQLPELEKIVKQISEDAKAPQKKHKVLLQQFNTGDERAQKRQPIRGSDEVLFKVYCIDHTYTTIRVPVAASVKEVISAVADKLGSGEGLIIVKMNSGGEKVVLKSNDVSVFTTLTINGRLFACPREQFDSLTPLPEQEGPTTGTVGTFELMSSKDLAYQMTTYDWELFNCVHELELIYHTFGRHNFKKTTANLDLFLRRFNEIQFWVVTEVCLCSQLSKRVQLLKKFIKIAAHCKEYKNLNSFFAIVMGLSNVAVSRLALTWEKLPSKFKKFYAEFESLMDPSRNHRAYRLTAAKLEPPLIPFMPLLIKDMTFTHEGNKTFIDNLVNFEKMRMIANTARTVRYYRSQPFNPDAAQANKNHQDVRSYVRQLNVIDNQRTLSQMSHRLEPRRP
# Procedure: Primary screen is performed in black 96-well or 384-well microplates. As an example, 50 nM EPAC2 solution is prepared in 20 mM Tris buffer, pH 7.5, containing 150 mM NaCl, 1 mM EDTA, and 1 mM […]. […] Sample is dispensed into plate and test compounds added from 96-well mother plates. […] Fluorescence intensity signal from 8-NBD was recorded at room temperature (rt) before and after tested compounds are added using SpectaMaxM2 microplate reader (Molecular Devices, Silicon Valley, Calif., USA) with excitation/emission wavelengths set at 470/540 nm.
# T1 sequence (Q8WZA2 whole entry, species assumed): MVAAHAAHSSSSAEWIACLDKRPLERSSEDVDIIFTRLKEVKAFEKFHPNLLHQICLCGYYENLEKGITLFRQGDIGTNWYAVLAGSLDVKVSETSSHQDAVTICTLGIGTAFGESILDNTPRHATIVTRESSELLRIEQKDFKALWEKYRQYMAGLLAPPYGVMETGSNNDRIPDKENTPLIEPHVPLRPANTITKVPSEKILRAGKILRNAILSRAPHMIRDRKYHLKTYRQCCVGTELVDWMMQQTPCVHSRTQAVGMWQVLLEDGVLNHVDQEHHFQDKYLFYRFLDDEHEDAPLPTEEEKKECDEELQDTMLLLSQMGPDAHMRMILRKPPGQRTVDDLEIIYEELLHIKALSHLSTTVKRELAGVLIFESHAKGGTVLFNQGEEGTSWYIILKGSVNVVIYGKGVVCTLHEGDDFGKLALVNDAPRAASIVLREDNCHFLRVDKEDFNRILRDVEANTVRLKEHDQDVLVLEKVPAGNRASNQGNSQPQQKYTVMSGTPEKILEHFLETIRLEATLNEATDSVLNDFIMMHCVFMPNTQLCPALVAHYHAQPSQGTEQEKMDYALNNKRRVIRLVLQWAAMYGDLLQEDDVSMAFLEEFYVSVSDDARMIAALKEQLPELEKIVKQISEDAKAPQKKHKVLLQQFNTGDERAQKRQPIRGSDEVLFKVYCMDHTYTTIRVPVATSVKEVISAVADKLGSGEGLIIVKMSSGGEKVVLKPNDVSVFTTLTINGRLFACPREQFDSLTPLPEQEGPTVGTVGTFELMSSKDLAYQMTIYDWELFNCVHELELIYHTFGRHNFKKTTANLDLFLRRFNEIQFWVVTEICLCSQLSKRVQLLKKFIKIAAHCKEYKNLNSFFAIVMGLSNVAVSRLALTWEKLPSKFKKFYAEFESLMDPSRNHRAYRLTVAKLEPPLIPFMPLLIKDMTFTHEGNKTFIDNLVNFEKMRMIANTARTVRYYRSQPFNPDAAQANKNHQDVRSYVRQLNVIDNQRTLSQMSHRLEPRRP
structure (smiles),measurement,setting,value
"CO[C@@H]1[C@@H]2OP(=O)(OCOC(C)=O)OC[C@H]2O[C@H]1n1c(Sc2ccc(Cl)cc2)nc2c(N)ncnc21 (stereo partly drawn) [Compound 007-AM, 8-(4-Chlorophenylthio)-2′-O-methyladenosine-3′,5′-cyclic monophosphate, acetoxymethyl ester, reference compound]",fraction of GTP-bound cellular Rap1,[1]; HEK293/EPAC2 cells treated with 007-AM,increase
same,Akt phosphorylation for both T308 and S473,[2],increase
same,Akt phosphorylation for both T308 and S473,[3],increase
same,cell adhesion,[4],increase
"O=S(=O)(NCCNC/C=C/c1ccc(Br)cc1)c1cccc2cnccc12 [Compound H89, reference compound]",cAMP-induced type I PKA holoenzyme activation,[5],blocked the type I or II PKA activities completely
same,cAMP-induced type II PKA holoenzyme activation,[6],blocked the type I or II PKA activities completely
Cc1ccc(S(=O)(=O)c2c(C)cc(C)cc2C)cc1 [ESI-05],cAMP-induced type I PKA holoenzyme activation,[5],did not significantly alter
same,cAMP-induced type II PKA holoenzyme activation,[6],did not significantly alter
same,007-AM induced Rap1 activation,[1],significant reduction
same,007-AM induced Rap1 activation,[7],ineffective
same,suppressing EPAC1 GEF activity,[8]; cAMP-mediated Rap1-GDP exchange,completely ineffective
same,EPAC1 IC50,"[8]; suppressing EPAC1 GEF activity, 25 μM cAMP",NMA*
Cc1ccc(C)c(CSc2nc(C3CCCCC3)c(C#N)c(=O)[nH]2)c1 [ESI-08],Relative Potency (RA),"[9]; RA = IC50, cAMP/IC50, compound",4.5
same,IC50,"[9]; competing with 8-NBD-cAMP in binding EPAC2, read-out: Apparent IC50",8.7 ± 1.1 µM
same,007-AM induced Rap1 activation,[1],much less effective
